Source: patent US6172262A, “Amphiphilic agents for membrane protein solubilization” (priority 1999, dated 2001)
Converted amounts (≈) assume the structure as drawn. “And” between values parts separate entries of the source, which are not always exact repeats. Equal entries are not always repeated. “Also recorded” adds a separate entry of the source. Where two headings read alike, the source gives them in different places. Values belong to the compound of their own block, whether it stands above or below them.

Experiments:
Aqueous solubility = format: physicochemical; settings: for solubility in water (in words) / solubility: water; for solubility on adding small amounts of ethanol or ethyl acetate: aqueous suspensions plus ethanol or ethyl acetate
Bacteriorhodopsin (BR) [1] = target: T1, Bacteriorhodopsin (BR) (Halobacterium salinarum, UniProt P02945); experiment: Solubilization of bacteriorhodopsin (BR) from purple membrane (PM)
T1 construct: We used BR solubilization from the PM to evaluate tripod detergents; endogenous in cells
T1 sequence (P02945 14-261 limits assumed): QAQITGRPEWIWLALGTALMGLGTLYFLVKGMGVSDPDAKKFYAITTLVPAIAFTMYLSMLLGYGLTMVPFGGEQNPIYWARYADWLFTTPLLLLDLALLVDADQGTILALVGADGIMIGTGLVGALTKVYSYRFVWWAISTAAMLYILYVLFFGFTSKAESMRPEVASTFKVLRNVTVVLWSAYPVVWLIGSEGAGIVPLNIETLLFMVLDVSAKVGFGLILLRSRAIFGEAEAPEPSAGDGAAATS
Experimental: We used BR solubilization from the PM to evaluate tripod detergents synthesized using the modular synthetic approach described above. The retinal chromophore of BR allowed us to quantify solubilized material by UV. Solubilized BR is defined as the intact protein left in the supernatant after a sample is centrifuged for 30 minutes at 300,000 g. The percent BR solubilized is determined by dividing the absorbance of the supernatant by the absorbance of the solution before centrifugation.
Solubilization experiments were conducted by making a series of solutions with constant concentration of PM and varying the concentration of detergent. […] The absorbance at the λmax (between 540 nm and 570 nm) was then measured, and immediately afterward the samples were centrifuged for 30 minutes at 300,000 g. The supernatant was carefully removed so as not to disturb pelleted material. Absorbance measurements were made again, and the ratio of the supernatant absorbance to the absorbance before centrifugation provided the percent solubilization.

[2] = comparison detergent, source not given; cited from earlier work
[3] = CMC by dye uptake (orange OT); format: physicochemical
Description: Triphenylacetic acid 4.0 has a novel amphiphilic geometry and is commercially available.
The addition of the t-butyl group accomplished the goal of increasing the hydrophobic surface area, as indicated by the diminished CMC's.
The CMC of a detergent can be determined experimentally by measuring the solubilization of a water-insoluble dye or fluorophore while varying the concentration of detergent. CMC may also be determined by measuring the diminution of the surface tension of an aqueous solution as a function of detergent concentration. (CMC's determined by either method correlate with each other.) The CMC is determined by extrapolating the plot of solubilization vs. concentration (or surface tension vs. concentration) in the two linear regions above and below the CMC. Where the two lines intersect is the CMC. In this Example, CMC's were determined by the method of Nugebauer, J. M. (1990), Methods in Enzymology, 182:239-253: […]

[4] = CMC by uptake of fluorescent dye 1,6-diphenylhexatriene, fluorescence spectroscopy; format: physicochemical; settings: for CMC of N-oxide relative to corresponding hydrochloride salt: 4.65 vs 4.78, 4.66 vs 4.79; for CMC (Critical Micelle Concentration): uptake of 1,6-diphenylhexatriene, 25 mM sodium phosphate pH 6.9, Table 1 and text
Experimental: The CMCs of detergents 4.65-4.72 were determined by monitoring the uptake of a fluorescent dye (1,6-diphenylhexatriene) with increasing detergent concentration (Table 1, CMC's determined by dye uptake versus concentration monitored by fluorescence spectroscopy). The CMCs of N-oxide isomers 4.65, 4.67, and 4.68 are very similar: 3 mM, 3 mM, and […], respectively. […] The CMCs for the N-oxides 4.65 and 4.66 are twice the CMCs of the corresponding hydrochloride salts (4.78 and 4.79). The hydrochloride salts were formed from the amine precursors to the N-oxides. Most cationic detergents have CMCs that are much higher than non-ionic or zwitterionic analogs. For example, dodecylammonium bromide has a CMC of 15 mM which is >7 times larger than the CMC of the N-oxide analog (LDAO, CMC=2 mM).
The CMCs of 4.100 and 4.104 were determined by the uptake of the fluorescent dye 1,6-diphenylhexatriene. The CMCs are 0.125 mM and 0.700 mM respectively. These values are substantially lower than the CMC of 4.65, which was determined to be 3 mM.
The CMC of a detergent can be determined experimentally by measuring the solubilization of a water-insoluble dye or fluorophore while varying the concentration of detergent. CMC may also be determined by measuring the diminution of the surface tension of an aqueous solution as a function of detergent concentration. (CMC's determined by either method correlate with each other.) The CMC is determined by extrapolating the plot of solubilization vs. concentration (or surface tension vs. concentration) in the two linear regions above and below the CMC. Where the two lines intersect is the CMC. In this Example, CMC's were determined by the method of Nugebauer, J. M. (1990), Methods in Enzymology, 182:239-253:
Tripod solutions in aqueous solutions containing 25 mM sodium phosphate pH 6.9 were prepared and transferred to screw-capped vials, and […] of a 1,6-diphenylhexatriene solution (DPH, 3.125 mM DPH in THF) was added. The solutions were vortexed at room temperature for 30 seconds. The solutions were placed into a 3 mm×3mm quartz cell and the fluorescence spectrum was obtained (excitation 358 nm, emission 430 nm, excitation slit width=1 mm, emission slit width=20 nm, PMT voltage=700). The fluorescence intensity of each sample was plotted against amphiphile concentration. […] The data points immediately surrounding the CMC were not considered due to non-linear behavior. See Tables 1 and 2, above, for the results.

BR = experiment: Loss of exciton coupling of BR by CD spectra (rate of solubilization); parameters: species or system Halobacterium; settings: room temperature
Experimental: Tripod detergents 4.65 and 4.66 were tested in this fashion and shown to solubilize BR from the PM quite rapidly. To measure whether the solublized BR was present in a monomeric state, CD spectra of the supernatants were taken. When suspended within the native PM, BR yields a distinct sigmoidal CD spectrum due to exciton coupling between adjacent retinal chromophores. It has been shown that the strength of the exciton coupling is directly proportional to the concentration of retinal chromophore in the PM. Because the exciton coupling requires retinals to be held in a fixed geometry (as when suspended in the PM), the solubilization of BR can be measured in terms of the loss of exciton coupling. […] Exciton coupling was completely gone after less than 10 minutes for samples solubilized by 4.65 and 4.66, a time period which is faster than the time required to obtain a CD spectrum.

Bacteriorhodopsin (BR) [5] = target: T1, Bacteriorhodopsin (BR); settings: reported detergents; cited from earlier work
[6] = CMC values of conventional detergents quoted for comparison; format: physicochemical

Compound: CCCCC(CCCC)(CCOC1O[C@H](CO)[C@@H](O[C@H]2O[C@H](CO)[C@@H](O)[C@H](O)[C@H]2O)[C@H](O)[C@H]1O)c1ccccc1 (stereo partly shown) [A.2.5]
- solubility in water (in words) (Aqueous solubility): sparingly soluble in water
- BR solubilized from the purple membrane (Bacteriorhodopsin (BR) [1]): approximately 50%

Compound: CCCCCCCCCCCC[N+](C)(C)[O-] [DDAO, dodecylammonium-N-oxide]
- CMC [2]: 10.4 mM

Compound: CCCCCCCCO[C@@H]1O[C@H](CO)[C@@H](O)[C@H](O)[C@H]1O [OG]
- removal of BR from the purple membrane (in words) (Bacteriorhodopsin (BR) [5]): successfully remove BR from its native environment

Compound: Br.CCCCCCCCCCCCN [dodecylammonium bromide]
- CMC ratio, dodecylammonium bromide vs N-oxide analog (LDAO) [6]: > 7 times larger
- CMC [2]: 15 mM

Compound: CCCCCCCCCO[C@@H]1O[C@H](CO)[C@@H](O)[C@H](O)[C@H]1O [nonyl glucoside (NG), nonyl glucoside]
- removal of BR from the purple membrane (in words) (Bacteriorhodopsin (BR) [5]): successfully remove BR from its native environment

Compound: Triton X-100 [reference compound]
- removal of BR from the purple membrane (in words) (Bacteriorhodopsin (BR) [5]): successfully remove BR from its native environment
- BR solubilization (in words) (Bacteriorhodopsin (BR) [1]): effective at solubilizing BR
- time to solubilize BR (Bacteriorhodopsin (BR) [1]; pH 5): 49 h
- time to solubilize BR (Bacteriorhodopsin (BR) [1]; pH 6.9): 24 h

Further lines, with some results ahead:

- solubility (Aqueous solubility; read-out: solubility): 210 mM (≈ 60.6 mg/mL)
- CMC ([3]; orange OT uptake): 130 mM
Compound: O=C(O)C(c1ccccc1)(c1ccccc1)c1ccccc1 [Detergent 4.1]

- solubility in water (in words) (Aqueous solubility): very soluble in water
- solubility (Aqueous solubility; read-out: solubility in water): > 2000 mM
- CMC ([3]; dye uptake): about 80 mM
Compound: C[N+](C)([O-])CCN(CC[N+](C)(C)[O-])C(=O)CC(c1ccccc1)(c1ccccc1)c1ccccc1 [Detergent 4.10]

- CMC ([3]; dye uptake): about 12.5 mM
Compound: CC(C)(C)c1ccc(C(CC(=O)N(CC[N+](C)(C)[O-])CC[N+](C)(C)[O-])(c2ccccc2)c2ccccc2)cc1 [Detergent 4.20]

- BR solubilization (Bacteriorhodopsin (BR) [1]; after mixing for approximately 20 hrs): greater than 90%
- BR solubilization (Bacteriorhodopsin (BR) [1]; first batch (about twice as much impurity 4.63)): > 90%
- BR solubilization (Bacteriorhodopsin (BR) [1]; second batch): < 50% and 50%
Compound: CCCCC(CCCC)(CC(=O)N(CC[N+](C)(C)[O-])CC[N+](C)(C)[O-])c1ccccc1 [Detergent 4.37]

- BR solubilization (Bacteriorhodopsin (BR) [1]; after 11 days): approximately 30%
Compound: CCCCCCC(CCCC)(CCCC)CC(=O)N(CC[N+](C)(C)[O-])CC[N+](C)(C)[O-] [Detergent 4.39]

- BR solubilization (in words) (Bacteriorhodopsin (BR) [1]): readily solubilize BR
Compound: CCCCCCC(CC(=O)N(CC[N+](C)(C)[O-])CC[N+](C)(C)[O-])(c1ccccc1)c1ccccc1 [Detergent 4.55]

- BR solubilization (in words) (Bacteriorhodopsin (BR) [1]): readily solubilize BR
Compound: CCCCC(CC(=O)N(CC[N+](C)(C)[O-])CC[N+](C)(C)[O-])(C1CCCCC1)C1CCCCC1 [Detergent 4.56]

- solubility on adding small amounts of ethanol or ethyl acetate (Aqueous solubility): greatly increased
- solubility in water (in words) (Aqueous solubility): insoluble in water
Compound: CC(C)(C)c1ccc(C(CC(=O)N(CC[N+](C)(C)[O-])CC[N+](C)(C)[O-])(c2ccc(C(C)(C)C)cc2)c2ccc(C(C)(C)C)cc2)cc1 [Detergent 4.59]

- solubility on adding small amounts of ethanol or ethyl acetate (Aqueous solubility): greatly increased
- solubility in water (in words) (Aqueous solubility): insoluble in water
Compound: C[N+](C)([O-])CCN(CC[N+](C)(C)[O-])C(=O)CC(c1ccc(-c2ccccc2)cc1)(c1ccc(-c2ccccc2)cc1)c1ccc(-c2ccccc2)cc1 [Detergent 4.62]

- BR solubilization (in words) (Bacteriorhodopsin (BR) [1]): can solubilize BR
- BR solubilization (Bacteriorhodopsin (BR) [1]; >99% pure by HPLC): greater than 90%
- CMC of N-oxide relative to corresponding hydrochloride salt [4]: twice
- CMC (Critical Micelle Concentration) [4]: 3 mM
Compound: CCCCC(CCCC)(CC(=O)N(CC)CC[N+](C)(C)[O-])c1ccccc1 [Detergent 4.65]
- rate of BR solubilization (in words) (BR): quite rapidly; also recorded: too rapid to monitor the loss of exciton coupling
- time to complete loss of exciton coupling (BR): less than 10 minutes

- CMC of N-oxide relative to corresponding hydrochloride salt [4]: twice
- CMC (Critical Micelle Concentration) [4]: 4.5 mM
Compound: CCCCC(CCCC)(CC(=O)NCCC[N+](C)(C)[O-])c1ccccc1 [Detergent 4.66]
- BR solubilization (in words) (Bacteriorhodopsin (BR) [1]): readily solubilize BR; also recorded: can solubilize BR
- rate of BR solubilization (in words) (BR): quite rapidly; also recorded: too rapid to monitor the loss of exciton coupling
- time to complete loss of exciton coupling (BR): less than 10 minutes

- solubility (Aqueous solubility; Table 1, no dye uptake up to this limit, read-out: solubility limit): ~12.5 mM (≈ 4.51 mg/mL)
Compound: CCCCC(CCCC)(CC(=O)NC(C)(C)CN(C)C)c1ccccc1 [Detergent 4.81]
- CMC (Critical Micelle Concentration) [4]: Does not take up dye up to solubility limit
